This note sets out measurements from publication PMC3806773, “Discovery of P1736, a Novel Antidiabetic Compound That Improves Peripheral Insulin Sensitivity in Mice Models” (PLoS ONE, 2013).

For experiment [1], the system named is 3T3-L1 cells. Description: Adipogenesis screen. The format is cell-based. The following applies: 43 µM; positive = increase in adipogenesis by more than 5-fold of vehicle. As for the experimental part:
Adipogenesis screening was carried out essentially according to the method of Choi et al. […] Compounds that caused increase in adipogenesis by more than 5-fold of vehicle (0.1% DMSO) were considered positive and were selected for further screening.

Experiment [2] has as its system insulin resistant 3T3 adipocytes. As to the kind of experiment: Glucose uptake in dexamethasone-induced insulin resistant 3T3 adipocytes. The format is cell-based. As for the experimental part:
Fully differentiated 3T3 adipocytes generated in 24-well plates were used after day 8 of differentiation. Insulin resistance was induced essentially as described before. Briefly, adipocytes were incubated with 100 nM dexamethasone for six consecutive days. […].
Glucose uptake was measured essentially according to the method of Gao et al using ^14C-labeled 2-deoxy glucose as the tracer. Activity in this assay is defined as a statistically significant increase in glucose uptake of minimum 50% compared to the uptake seen in cells exposed to vehicle. Effect of wortmannin on glucose uptake was studied according to the method of Hausdorff et al using 100 nM wortmannin.

The target in experiment [3] is T1, human 11<beta>-Hydroxysteroid dehydrogenase-1 (Homo sapiens, UniProt P28845).
T1 construct: University of Edinburgh, UK (outsourced)
Description: 11beta-HSD1 cell based inhibition assay. The following applies: concentration not given. Here is the method:
Transactivation activity against human PPARγ and PPARα receptors was determined using luciferase reporter gene assays in the Laboratory of CloneGen Biotechnology, Michigan, USA. Activities of protein tyrosine phosphatase-1b (PTP-1B) and adenosine mono phosphate activated kinase (AMPK) were evaluated at MDS Pharma, Korea. Evaluation of activity against human 11-Hydroxysteroid dehydrogenase-1 was outsourced to University of Edinburg, UK which used a cell based method.

The test system of experiment [4] is panel of membrane receptors, ion channels and enzymes. Description: Screen against a panel of membrane receptors, ion channels and enzymes.
Experiment [5] deals with ob/ob mice. Description: Antidiabetic activity in ob/ob mice. The format is in vivo. The following applies: 5 mg/kg, 10 days.
Experiment [6] deals with GLUT-4. Description: GLUT-4 translocation in insulin resistant 3T3 adipocytes (immunofluorescence). The following applies: 10 µM, 4 days, 200nM insulin stimulated.
Description: GLUT-4 translocation was evaluated by the method of Hausdorff et al [14] with a few modifications. Insulin resistant 3T3 adipocytes were prepared in 24-well plates fitted with coverslip inserts. After incubation with compounds, the media was removed. The cells were stimulated with 200nM insulin and processed for immunofluorescence detection using anti-GLUT-4 antibody (1:1000) followed by FITC labeled secondary antibody (1:1000).
Later the cells were stimulated with 200nmol/l insulin for 25 minutes. Whole cell immunofluorescence assay for GLUT-4 translocation was performed using rabbit antibody against GLUT - 4 followed by incubation with FITC labeled secondary antibody. Confocal images were obtained using Bio-Rad Laser Scanning Microscope.

Each structure is given as a SMILES string. Entries after “also recorded” stand apart in the source; their conditions may differ.

T1 sequence (P28845 whole entry): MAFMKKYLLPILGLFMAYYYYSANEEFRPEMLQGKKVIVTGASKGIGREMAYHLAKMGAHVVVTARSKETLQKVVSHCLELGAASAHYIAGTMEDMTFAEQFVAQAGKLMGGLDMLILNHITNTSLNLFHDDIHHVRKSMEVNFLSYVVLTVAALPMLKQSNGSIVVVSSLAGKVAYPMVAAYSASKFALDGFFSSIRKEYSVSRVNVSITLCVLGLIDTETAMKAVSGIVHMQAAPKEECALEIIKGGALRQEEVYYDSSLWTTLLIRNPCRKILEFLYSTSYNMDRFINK

As for `O=S(=O)(Nc1cnc(Oc2cc3ccccc3cn2)c(Cl)c1)c1ccc(Cl)cc1Cl` [P1736], the “result in adipogenesis screen” value in experiment [1] is reported as “positive”. For the same molecule, the “stimulation of glucose uptake after pretreatment with wortmannin” value in experiment [2] (10 µM compound, 100 nM wortmannin for 30 minutes) is “abolished”. Further, the “increase in glucose uptake compared to insulin resistant vehicle” value in experiment [2] (10 µM, 4 days exposure) is listed as “more than 2 fold”. In experiment [2] (Adipocyte, dose response, insulin resistant adipocytes, read-out: EC50 of increase in glucose uptake), the EC50 stood at 400 nM. Further, in experiment [3], the “inhibitory activity towards 11<beta>-Hydroxysteroid dehydrogenase-1” value amounted to 50%. Besides, the “activity against panel targets” value in experiment [4] is given as “no significant activity”. In experiment [5], the “lowering of plasma insulin levels” value is on record as 40%. For the same molecule, the “GLUT-4 translocation to plasma membrane” value in experiment [6] is “induced translocation; also recorded: complete translocation”.
